Data published in patent publication US9480251B2, “Insecticidal compositions and method for insect control” (FMC Corporation, priority 2010, dated 2016).

What was measured:
Assay type in all cases: in vivo
[1] = test system: Lasius ant (Lasius niger); test: Direct spray contact toxicity, Lasius ant; conditions: ten insects on asphalt slab, directly sprayed for 2 seconds
Description: (§1) Formulations of geraniol, cedar oil and mixtures thereof were evaluated for contact toxicity against the Lasius ant (Lasius niger), lady beetle (Harmonia axyridis), brown stink bug (Halyomorpha halys), green peach aphid (Myzus persicae), house cricket (Acheta domesticus) and […] bug (Pseudococcus longispinus). […] Each test solution was poured into a 16 ounce spray can, a valve was installed and the can was charged with carbon dioxide as the propellant. Direct spraying of the test substance onto insects was performed to determine the efficacy of each test solution as follows: Lasius ant and lady beetle test-In separate tests, ten insects of each species were placed onto an asphalt slab and directly sprayed for 2 seconds with the appropriate test solutions.

[2] = test system: lady beetle (Harmonia axyridis); test: Direct spray contact toxicity, lady beetle; conditions: ten insects on asphalt slab, directly sprayed for 2 seconds
Description: as §1

[3] = test system: brown stink bug (Halyomorpha halys); test: Direct spray contact toxicity, brown stink bug; conditions: ten insects on concrete slab, directly sprayed for 2 seconds
Description: as §1, with “follows: Brown stink bug” for “follows: Lasius ant”, “and house cricket” for “and lady beetle”, “onto a concrete” for “onto an asphalt”

[4] = test system: green peach aphid (Myzus persicae); test: Spray to runoff of infested bell pepper plant, green peach aphid; conditions: infested bell pepper plant sprayed until runoff
Description: as §1, with “Green peach aphid” for “Lasius ant and lady beetle”, “a bell pepper plant, infested with green peach aphids, was” for “ten insects of each species were placed onto an asphalt slab and directly”, “sprayed” for “sprayed for 2 seconds”, “solution until runoff.” for “solutions.”

[5] = test system: house cricket (Acheta domesticus); test: Direct spray contact toxicity, house cricket; conditions: ten insects on concrete slab, directly sprayed for 2 seconds
Description: as §1, with “follows: Brown stink bug” for “follows: Lasius ant”, “and house cricket” for “and lady beetle”, “onto a concrete” for “onto an asphalt”

[6] = test system: longtail mealy bug (Pseudococcus longispinus); test: Spray to runoff of infested Euonymus leaves, longtail mealy bug; conditions: ten bugs on variegated Euonymus leaves sprayed until runoff, assessed after 24 hours
Description: Formulations of geraniol, cedar oil and mixtures thereof were evaluated for contact toxicity against the Lasius ant (Lasius niger), lady beetle (Harmonia axyridis), brown stink bug (Halyomorpha halys), green peach aphid (Myzus persicae), house cricket (Acheta domesticus) and longtail mealy bug (Pseudococcus longispinus). The plant oil test solutions were prepared by dissolving the appropriate amount of the plant oil(s) in deionized water containing 0.5% by weight sodium laureth sulfate, for example 4.4 grams of geraniol was dissolved in 1 liter of deioinized water containing 5 grams of sodium laureth sulfate to prepare a 0.44% test solution of geraniol. Each test solution was poured into a 16 ounce spray can, a valve was installed and the can was charged with carbon dioxide as the propellant. Direct spraying of the test substance onto insects was performed to determine the efficacy of each test solution as follows:
Longtail mealy bug test—In separate tests, ten longtail mealy bugs were established on several leaves of a variegated Euonymus plant, the infested leaves were sprayed with the appropriate test solution until runoff.

Structure (SMILES): CC(C)=CCC/C(C)=C/CO [0.44% geraniol, trans-3,7-dimethyl-2,6-octadien-1-ol]
- Recovery from knockdown [1]: None
- Time to 100% Knockdown [1]: 9 s
- Time to 100% mortality [1]: 20 s
- Recovery from knockdown [2]: None
- Time to 100% Knockdown [2]: 20 s
- Time to 100% mortality [2]: 60 s
- Recovery from knockdown [3]: None
- Time to 100% Knockdown [3]: 20 s
- Time to 100% mortality [3]: 90 s
- Recovery from knockdown [4]: None
- Time to 100% Knockdown [4]: No apparent
- Time to 100% mortality [4]: 3 h
- Recovery from knockdown [5]: None
- Time to 100% Knockdown [5]: 60 s
- Time to 100% mortality [5]: 3 h
- mortality at 24 hours [6]: 50% mortality at
